Results reported in ChEMBL document CHEMBL1141099, “Discovery of N-(2,6-dimethylphenyl)-substituted semicarbazones as anticonvulsants: hybrid pharmacophore-based design” (2005).

Legend:
Rattus norvegicus [1] = test: Number of rats protected at a dose of 30 mg/Kg when given oral at 1 hr upon maximal electroshock seizure; Total number of rats = 4; assay type: functional
Mus musculus [2] = test: Minimum dose required for anticonvulsant activity when given i.p., at 0.5 hr in mice upon subcutaneous strychnine seizure; assay type: functional
Mus musculus [3] = test: Post treatment immobility time for CNS study using Porsolt's swimpool test at a dose of 100 mg/Kg after 1 hr when given i.p., in mice (No. of animals 6); Control (24h before) 184
Mus musculus [4] = test: Minimum dose required for anticonvulsant activity when given i.p., at 0.5 hr in mice upon maximal electroshock seizure; assay type: functional
Rattus norvegicus [5] = test: Effective dose required for anticonvulsant activity when given orally at 4 h in rat upon maximal electroshock seizure; assay type: functional; settings: po
Rattus norvegicus [6] = test: Enzymatic activity to assess the increase in level of SGPT at a dose of 30 mg/Kg for 14 days when given p.o., in 6 rats; Control 45.0; assay type: functional
Mus musculus [7] = test: Minimum dose required for anticonvulsant activity when given i.p., at 2 hr in mice upon subcutaneous strychnine seizure; assay type: functional
Mus musculus [8] = test: Minimum dose required for anticonvulsant activity when given i.p., at 0.5 hr in mice upon neurotoxicity seizure using rotarod test; assay type: functional
Mus musculus [9] = test: Post treatment activity score for CNS study using a actophotometer at a dose of 100 mg/Kg after 0.5 hr when given i.p., in mice (No. of animals 6); Control (24h before) 258
Rattus norvegicus [10] = test: Toxic dose observed for anticonvulsant activity when given orally at 4 h in rat upon neurotoxicity seizure; assay type: functional; settings: po
Mus musculus [11] = test: Minimum dose required for anticonvulsant activity when given i.p., at 0.5 hr in mice upon subcutaneous pentylenetetrazole seizure; assay type: functional
Rattus norvegicus [12] = test: Number of rats protected at a dose of 30 mg/Kg when given oral at 2 hr upon maximal electroshock seizure; Total number of rats = 4; assay type: functional
Rattus norvegicus [13] = organism: Rattus norvegicus; test: Protective index between effective dose and toxic dose in rat; assay type: functional
Rattus norvegicus [14] = test: Number of rats protected at a dose of 30 mg/Kg when given oral at 0.25 hr upon maximal electroshock seizure; Total number of rats = 4; assay type: functional
Rattus norvegicus [15] = test: Enzymatic activity to assess the increase in level of SGOT at a dose of 30 mg/Kg for 14 days when given p.o., in 6 rats; Control 73.1; assay type: functional
Mus musculus [16] = test: Minimum dose required for anticonvulsant activity when given i.p., in mice upon neurotoxicity seizure using rotarod test
Rattus norvegicus [17] = test: Number of rats protected at a dose of 30 mg/Kg when given oral at 4 hr upon maximal electroshock seizure; Total number of rats = 4; assay type: functional
Rattus norvegicus [18] = test: Number of rats protected at a dose of 30 mg/Kg when given oral at 0.5 hr upon maximal electroshock seizure; Total number of rats = 4; assay type: functional
Mus musculus [19] = test: Post treatment activity score for CNS study using a actophotometer at a dose of 100 mg/Kg after 1 hr when given i.p., in mice (No. of animals 6); Control (24h before) 258
Mus musculus [20] = test: Minimum dose required for anticonvulsant activity when given i.p., at 4 hr in mice upon maximal electroshock seizure; assay type: functional
[21] = target: 4-aminobutyrate aminotransferase, mitochondrial (Rattus norvegicus) (UniProt P50554); test: In vitro percentage inhibition activity against GABA-T enzyme at a concentration of 1.25 uM after 4.5 h
Mus musculus [22] = test: Post treatment activity score for CNS study using a actophotometer at a dose of 100 mg/Kg after 0.5 hr when given i.p., in mice (No. of animals 6); Control (24h before) 217
Rattus norvegicus [23] = test: After discharge duration time when after administered in rat 1 at dose 130 mg/Kg when given i.p., upon preliminary hippocampal-kindling screen; assay type: functional, Hippocampus
Rattus norvegicus [24] = test: Effect on GABA level in rat whole brain concentration after 7 days post-treatment at a dose of 30 mg/Kg when given orally; Control 50.5; assay type: functional
Rattus norvegicus [25] = test: Seizure score after administration in rat 2 at dose 130 mg/Kg when given i.p., upon preliminary hippocampal-kindling screen; assay type: functional, Hippocampus
[26] = target: 4-aminobutyrate aminotransferase, mitochondrial (Rattus norvegicus) (UniProt P50554); test: In vitro percentage inhibition activity against GABA-T enzyme at a concentration of 1.25 uM after 3 h
Rattus norvegicus [27] = test: After discharge duration time when before administered in rat 2 at dose 130 mg/Kg when given i.p., upon preliminary hippocampal-kindling screen; Prodrug time 30-39 s; assay type: functional, Hippocampus
Rattus norvegicus [28] = organism: Rattus norvegicus; test: Ex vitro percentage inhibition activity against GABA-T enzyme at a concentration of 2.5 uM after 4.5 h; assay type: functional
Rattus norvegicus [29] = test: After discharge duration time when before administered in rat 1 at dose 130 mg/Kg when given i.p., upon preliminary hippocampal-kindling screen; Prodrug time 26-39 s; assay type: functional, Hippocampus
Rattus norvegicus [30] = test: Seizure score before administration in rat 2 at dose 130 mg/Kg when given i.p., upon preliminary hippocampal-kindling screen; assay type: functional, Hippocampus
Rattus norvegicus [31] = organism: Rattus norvegicus; test: Ex vitro percentage inhibition activity against GABA-T enzyme at a concentration of 2.5 uM after 6 h; assay type: functional
Rattus norvegicus [32] = test: After discharge duration time when after administered in rat 2 at dose 130 mg/Kg when given i.p., upon preliminary hippocampal-kindling screen; assay type: functional, Hippocampus
Rattus norvegicus [33] = organism: Rattus norvegicus; test: Ex vitro percentage inhibition activity against GABA-T enzyme at a concentration of 2.5 uM after 3 h; assay type: functional
Rattus norvegicus [34] = test: Seizure score after administration in rat 1 at dose 130 mg/Kg when given i.p., upon preliminary hippocampal-kindling screen; assay type: functional, Hippocampus
Mus musculus [35] = test: Post treatment immobility time for CNS study using Porsolt's swimpool test at a dose of 100 mg/Kg after 1 h when given i.p., in mice (No. of animals 6); Control (24h before) 190
Rattus norvegicus [36] = test: Seizure score before administration in rat 1 at dose 130 mg/Kg when given i.p., upon preliminary hippocampal-kindling screen; assay type: functional, Hippocampus
Rattus norvegicus [37] = test: Effect on GABA level in rat whole brain concentration after 2 hr post-treatment at a dose of 100 mg/Kg when given i.p.; Control 48.4; assay type: functional
[38] = target: 4-aminobutyrate aminotransferase, mitochondrial (Rattus norvegicus) (UniProt P50554); test: In vitro percentage inhibition activity against GABA-T enzyme at a concentration of 1.25 uM after 6 h
Mus musculus [39] = test: Post treatment activity score for CNS study using a actophotometer at a dose of 100 mg/Kg after 1 hr when given i.p., in mice (No. of animals 6); Control (24h before) 217
Rattus norvegicus [40] = organism: Rattus norvegicus; test: Ex vitro percentage inhibition activity against GABA-T enzyme at a concentration of 1.25 uM after 3 h; assay type: functional
Mus musculus [41] = test: Post treatment immobility time for CNS study using Porsolt's swimpool test at a dose of 100 mg/Kg after 1 hr when given i.p., in mice (No. of animals 6); Control (24h before) 132
[42] = target: 4-aminobutyrate aminotransferase, mitochondrial (Rattus norvegicus) (UniProt P50554); test: In vitro percentage inhibition activity against GABA-T enzyme at a concentration of 0.625 uM after 3 h
Rattus norvegicus [43] = organism: Rattus norvegicus; test: Ex vitro percentage inhibition activity against GABA-T enzyme at a concentration of 1.25 uM after 6 h; assay type: functional
Mus musculus [44] = test: Post treatment activity score for CNS study using a actophotometer at a dose of 100 mg/Kg after 1 hr when given i.p., in mice (No. of animals 6); Control (24h before) 281
[45] = target: 4-aminobutyrate aminotransferase, mitochondrial (Rattus norvegicus) (UniProt P50554); test: In vitro percentage inhibition activity against GABA-T enzyme at a concentration of 0.625 uM after 4.5 h
Rattus norvegicus [46] = test: Toxic dose observed for anticonvulsant activity when given i.p., at 0.5 hr in rat upon neurotoxicity seizure; assay type: functional; settings: ip
Rattus norvegicus [47] = test: Effective dose required for anticonvulsant activity when given i.p., at 0.5 hr in rat upon maximal electroshock seizure; assay type: functional; settings: ip
[48] = target: 4-aminobutyrate aminotransferase, mitochondrial (Rattus norvegicus) (UniProt P50554); test: In vitro percentage inhibition activity against GABA-T enzyme at a concentration of 0.625 uM after 6 h
Mus musculus [49] = test: Post treatment activity score for CNS study using a actophotometer at a dose of 100 mg/Kg after 0.5 hr when given i.p., in mice (No. of animals 6); Control (24h before) 281
Mus musculus [50] = test: Mean sleeping time evaluated for CNS study using the pentobarbital-induced narcosis model at a dose of 100 mg/Kg when given i.p., in mice (No. of animals 6)
Rattus norvegicus [51] = organism: Rattus norvegicus; test: Ex vitro percentage inhibition activity against GABA-T enzyme at a concentration of 1.25 uM after 4.5 h; assay type: functional
[52] = target: 4-aminobutyrate aminotransferase, mitochondrial (Rattus norvegicus) (UniProt P50554); test: In vitro percentage inhibition activity against GABA-T enzyme at a concentration of 2.5 uM after 4.5 h
Rattus norvegicus [53] = test: Toxic dose observed for anticonvulsant activity when given i.p., at 0.25 hr in rat upon neurotoxicity seizure; assay type: functional; settings: ip
[54] = target: 4-aminobutyrate aminotransferase, mitochondrial (Rattus norvegicus) (UniProt P50554); test: In vitro percentage inhibition activity against GABA-T enzyme at a concentration of 2.5 uM after 6 h
Rattus norvegicus [55] = test: Effective dose required for anticonvulsant activity when given i.p., at 0.25 hr in rat upon maximal electroshock seizure; assay type: functional; settings: ip
Mus musculus [56] = test: Post treatment activity score for CNS study using a actophotometer at a dose of 100 mg/Kg after 1 hr when given i.p., in mice (No. of animals 6); Control (24h before) 260
[57] = target: 4-aminobutyrate aminotransferase, mitochondrial (Rattus norvegicus) (UniProt P50554); test: In vitro percentage inhibition activity against GABA-T enzyme at a concentration of 2.5 uM after 3 h
Mus musculus [58] = test: Post treatment immobility time for CNS study using Porsolt's swimpool test at a dose of 100 mg/Kg after 1 h when given i.p., in mice (No. of animals 6); Control (24h before) 164
Mus musculus [59] = test: Post treatment activity score for CNS study using a actophotometer at a dose of 100 mg/Kg after 0.5 hr when given i.p., in mice (No. of animals 6); Control (24h before) 260

4-aminobutyrate aminotransferase, mitochondrial (Rattus norvegicus), sequence (P50554 28-500 limits assumed): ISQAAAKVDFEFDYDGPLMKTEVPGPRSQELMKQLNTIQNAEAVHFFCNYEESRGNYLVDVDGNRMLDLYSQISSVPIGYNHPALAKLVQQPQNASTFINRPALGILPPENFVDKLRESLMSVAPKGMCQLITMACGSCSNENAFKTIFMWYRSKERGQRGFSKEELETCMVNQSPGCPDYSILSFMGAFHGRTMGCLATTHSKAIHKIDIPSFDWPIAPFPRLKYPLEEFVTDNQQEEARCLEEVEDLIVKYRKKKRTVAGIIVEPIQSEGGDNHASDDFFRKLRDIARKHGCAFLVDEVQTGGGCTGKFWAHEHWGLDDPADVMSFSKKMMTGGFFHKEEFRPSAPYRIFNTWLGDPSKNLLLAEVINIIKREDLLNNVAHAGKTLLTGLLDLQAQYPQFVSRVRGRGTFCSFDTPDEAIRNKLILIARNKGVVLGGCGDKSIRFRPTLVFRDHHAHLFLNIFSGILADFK

SMILES | Activity (Rattus norvegicus [1]) | STY seizure (Mus musculus [2]) [mg/kg] | MES (Mus musculus [4]) [mg/kg] | ED50 (Rattus norvegicus [5]) [mg/kg] | SGPT activity (Rattus norvegicus [6]) [units/mL] | STY seizure (Mus musculus [7]) [mg/kg] | NT (Mus musculus [8]) [mg/kg] | TD50 (Rattus norvegicus [10]) [mg/kg] | PTZ seizure (Mus musculus [11]) [mg/kg] | Activity (Rattus norvegicus [12]) | PI (Rattus norvegicus [13]) | Activity (Rattus norvegicus [14]) | SGOT activity (Rattus norvegicus [15]) [units/mL] | Activity (Rattus norvegicus [17]) | Activity (Rattus norvegicus [18]) | MES (Mus musculus [20]) [mg/kg] | Activity (Rattus norvegicus [24]) | Activity (Rattus norvegicus [37]) | Inhibition (Rattus norvegicus [40]) [%] | Inhibition (Rattus norvegicus [43]) [%] | further results
C/C(=N\NC(=O)Nc1c(C)cccc1C)c1ccc(N)cc1 | 4 | 30 | 100 | 29.1 | 44.6 | 100 | 300 | > 464 | 300 | 2 | >15.9 | 1 | 71.3 | 4 | 3 | 300 | – | – | – | – | Activity (Mus musculus [3]): 204; Activity (Mus musculus [9]): 202; NT (Mus musculus [16]): 300 mg/kg; Activity (Mus musculus [19]): 187
Cc1cccc(C)c1NC(=O)N/N=C/c1ccccc1O | 3 | 30 | 100 | 19.8 | 43.3 | 100 | – | > 500 | 300 | 4 | >25.1 | 1 | 64.8 | 4 | 3 | 300 | 110 ug/100mg of tissue | 92.1 ug/100mg of tissue | – | – | inhibition [21]: 0%; Activity (Mus musculus [22]): 155; ADD (Rattus norvegicus [23]): 59 s; Score (Rattus norvegicus [25]): 1; inhibition [26]: 58%; ADD (Rattus norvegicus [27]): 39 s; Inhibition (Rattus norvegicus [28]): 43%; ADD (Rattus norvegicus [29]): 39 s; Score (Rattus norvegicus [30]): 5; Inhibition (Rattus norvegicus [31]): 0%; ADD (Rattus norvegicus [32]): 25 s; Inhibition (Rattus norvegicus [33]): 90%; Score (Rattus norvegicus [34]): 1; Activity (Mus musculus [35]): 191; Score (Rattus norvegicus [36]): 5; inhibition [38]: 9%; Activity (Mus musculus [39]): 135
Cc1cccc(C)c1NC(=O)N/N=C/c1ccccc1[N+](=O)[O-] | 2 | 100 | 300 | – | – | – | 300 | – | 300 | 2 | >4.3 | 2 | – | 2 | 2 | 300 | 81.6 ug/100mg of tissue | 84.7 ug/100mg of tissue | 0 | 23 | Activity (Mus musculus [41]): 190; inhibition [42]: 53%; Activity (Mus musculus [44]): 177; inhibition [45]: 0%; TD50 (Rattus norvegicus [46]): > 100 mg/kg; ED50 (Rattus norvegicus [47]): 23.2 mg/kg; inhibition [48]: 40%; Activity (Mus musculus [49]): 177; Time (Mus musculus [50]): 141 min; Inhibition (Rattus norvegicus [51]): 98%
C/C(=N\NC(=O)Nc1c(C)cccc1C)c1ccc(O)cc1 | 4 | 30 | 100 | – | – | 100 | – | – | 300 | 3 | >1.6 | 1 | – | 4 | 2 | 300 | 93.6 ug/100mg of tissue | 81.1 ug/100mg of tissue | 0 | 60 | inhibition [52]: 0%; TD50 (Rattus norvegicus [53]): > 68 mg/kg; inhibition [54]: 55%; ED50 (Rattus norvegicus [55]): 41.6 mg/kg; Activity (Mus musculus [56]): 198; inhibition [57]: 0%; Time (Mus musculus [50]): 108 min; Activity (Mus musculus [58]): 198; Activity (Mus musculus [59]): 205; Inhibition (Rattus norvegicus [51]): 25%
